Data from patent EP0435693B1, “Pharmaceutical compositions containing 3-oxygermylpropionic acid polymers for inhibiting the degeneration of cells” (SANWA KAGAKU KENKYUSHO CO., LTD., priority 1989, dated 1991).
Where two headings read alike, the source gives them in different places.

System: SD masculine rats with hypohepatia
Format: in vivo
Details: hepatoxic drug alone after carbon tetrachloride
Experimental: Carbon tetrachloride was administered orally as a hepatoxic substance to SD masculine rats (weighing 500 g ± 50 g; age, 10 months) with hypohepatia (3 groups containing 8-9 rats each) at a dose of 0.5 g/kg, whereby their serum GOT was increased to more than 50 Karmen units after 24 hours. At the same time, 2 mg/kg of indomethacin as a hepatoxic drug (a lenitive), 5 mg/kg of 5-FU as a hepatoxic carcinostatic and 10 mg/kg of tetracycline as a hepatoxic antibiotic were administered orally to each of the animals five times every fourth day.
An additional 20 mg/kg of the composition of Preparation Ex. 1 was administered orally to the medicated group.
Seven days after the completion of medication, the animals were slaughtered to remove the livers, which were then visually observed. Afterwards, the tissue slices were observed under an optical microscope to examine the degree of heteroplasia of the liver cells.
The GOT eluates due to cytoclasis were determined by gathering blood from the tail vein of each animal 24 hours after the administration of carbon tetrachloride, two and ten days after the initiation of medication and on the final date of experimentation.

Structure (SMILES)	mortality	serum GOT (2 days after the initiation of medication)	serum GOT (10 days)	serum GOT (Final Date)
COc1ccc2c(c1)c(CC(=O)O)c(C)n2C(=O)c1ccc(Cl)cc1 [Indomethacin]	some animals died	81.3±4.21 Karmen units/ml	91.8±8.35 Karmen units/ml	99.4±1.43 Karmen units/ml
O=c1[nH]cc(F)c(=O)[nH]1 [5-FU, 5-fluorouracil]	some animals died			
